According to PubChem BioAssay (NCI):
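96-well plates; 48 h exposure; 5 concentrations. Endpoints by linear interpolation between flanking doses. Not reached: highest tested concentration assigned. The concentration for full growth arrest is given as TGI.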

How the values were obtained:
Assay in all cases: DTP human tumour cell line panel, 48 h
SR leukemia = tested on: SR leukemia
UO-31 renal = tested on: UO-31 renal
T-47D breast = tested on: T-47D breast
NCI/ADR-RES ovarian = tested on: NCI/ADR-RES ovarian
PC-3 prostate = tested on: PC-3 prostate
UACC-257 melanoma = tested on: UACC-257 melanoma
NCI-H522 lung = tested on: NCI-H522 lung
MDA-MB-435 = tested on: MDA-MB-435
MOLT-4 leukemia = tested on: MOLT-4 leukemia
COLO 205 colon = tested on: COLO 205 colon
SK-MEL-5 melanoma = tested on: SK-MEL-5 melanoma
SK-MEL-28 melanoma = tested on: SK-MEL-28 melanoma
HOP-92 NSCLC = tested on: HOP-92 NSCLC
MCF7 breast = tested on: MCF7 breast
SNB-75 CNS = tested on: SNB-75 CNS
OVCAR-3 ovarian = tested on: OVCAR-3 ovarian
LOX IMVI melanoma = tested on: LOX IMVI melanoma
MDA-MB-231 breast = tested on: MDA-MB-231 breast
BT-549 breast = tested on: BT-549 breast
NCI-H460 lung = tested on: NCI-H460 lung
SK-OV-3 ovarian = tested on: SK-OV-3 ovarian
CCRF-CEM leukemia = tested on: CCRF-CEM leukemia
U251 CNS = tested on: U251 CNS
TK-10 renal = tested on: TK-10 renal
OVCAR-4 ovarian = tested on: OVCAR-4 ovarian
A498 renal = tested on: A498 renal
A549 NSCLC = tested on: A549 NSCLC
IGROV1 ovarian = tested on: IGROV1 ovarian
SNB-19 CNS = tested on: SNB-19 CNS
KM12 colon = tested on: KM12 colon
OVCAR-8 ovarian = tested on: OVCAR-8 ovarian
HCC-2998 colon = tested on: HCC-2998 colon
NCI-H23 lung = tested on: NCI-H23 lung
RPMI-8226 leukemia = tested on: RPMI-8226 leukemia
SN12C renal = tested on: SN12C renal
HS 578T breast = tested on: HS 578T breast
K-562 leukemia = tested on: K-562 leukemia
ACHN renal = tested on: ACHN renal
MDA-N = tested on: MDA-N
EKVX NSCLC = tested on: EKVX NSCLC
UACC-62 melanoma = tested on: UACC-62 melanoma
CAKI-1 renal = tested on: CAKI-1 renal
SF-539 CNS = tested on: SF-539 CNS
HCT-15 colon = tested on: HCT-15 colon
SK-MEL-2 melanoma = tested on: SK-MEL-2 melanoma
HOP-62 NSCLC = tested on: HOP-62 NSCLC
HT29 colon = tested on: HT29 colon
HCT-116 colon = tested on: HCT-116 colon
M14 melanoma = tested on: M14 melanoma
SF-268 CNS = tested on: SF-268 CNS
NCI-H226 lung = tested on: NCI-H226 lung
OVCAR-5 ovarian = tested on: OVCAR-5 ovarian
SF-295 CNS = tested on: SF-295 CNS
SW-620 colon = tested on: SW-620 colon
DU-145 prostate = tested on: DU-145 prostate
MALME-3M melanoma = tested on: MALME-3M melanoma
786-0 renal = tested on: 786-0 renal
HL-60(TB) leukemia = tested on: HL-60(TB) leukemia
RXF 393 renal = tested on: RXF 393 renal

CC(=NCC(=O)O)c1ccccc1
TGI (SR leukemia): > 100 µM | TGI (UO-31 renal): > 100 µM | TGI (T-47D breast): > 100 µM | TGI (NCI/ADR-RES ovarian): > 100 µM | TGI (PC-3 prostate): > 100 µM | TGI (UACC-257 melanoma): > 100 µM | TGI (NCI-H522 lung): > 100 µM | TGI (MDA-MB-435): > 100 µM | TGI (MOLT-4 leukemia): > 100 µM | TGI (COLO 205 colon): > 100 µM | TGI (SK-MEL-5 melanoma): > 100 µM | TGI (SK-MEL-28 melanoma): > 100 µM | TGI (HOP-92 NSCLC): > 100 µM | TGI (MCF7 breast): > 100 µM | TGI (SNB-75 CNS): > 100 µM | TGI (OVCAR-3 ovarian): > 100 µM | TGI (LOX IMVI melanoma): > 100 µM | TGI (MDA-MB-231 breast): > 100 µM | TGI (BT-549 breast): > 100 µM | TGI (NCI-H460 lung): > 100 µM | TGI (SK-OV-3 ovarian): > 100 µM | TGI (CCRF-CEM leukemia): > 100 µM | TGI (U251 CNS): > 100 µM | TGI (TK-10 renal): > 100 µM | TGI (OVCAR-4 ovarian): > 100 µM | TGI (A498 renal): > 100 µM | TGI (A549 NSCLC): > 100 µM | TGI (IGROV1 ovarian): > 100 µM | TGI (SNB-19 CNS): > 100 µM | TGI (KM12 colon): > 100 µM | TGI (OVCAR-8 ovarian): > 100 µM | TGI (HCC-2998 colon): > 100 µM | TGI (NCI-H23 lung): > 100 µM | TGI (RPMI-8226 leukemia): > 100 µM | TGI (SN12C renal): > 100 µM | TGI (HS 578T breast): > 100 µM | TGI (K-562 leukemia): > 100 µM | TGI (ACHN renal): > 100 µM | TGI (MDA-N): > 100 µM | TGI (EKVX NSCLC): > 100 µM | TGI (UACC-62 melanoma): > 100 µM | TGI (CAKI-1 renal): > 100 µM | TGI (SF-539 CNS): > 100 µM | TGI (HCT-15 colon): > 100 µM | TGI (SK-MEL-2 melanoma): > 100 µM | TGI (HOP-62 NSCLC): > 100 µM | TGI (HT29 colon): > 100 µM | TGI (HCT-116 colon): > 100 µM | TGI (M14 melanoma): > 100 µM | TGI (SF-268 CNS): > 100 µM | TGI (NCI-H226 lung): > 100 µM | TGI (OVCAR-5 ovarian): > 100 µM | TGI (SF-295 CNS): > 100 µM | TGI (SW-620 colon): > 100 µM | TGI (DU-145 prostate): > 100 µM | TGI (MALME-3M melanoma): > 100 µM | TGI (786-0 renal): > 100 µM | TGI (HL-60(TB) leukemia): > 100 µM | TGI (RXF 393 renal): > 100 µM

[N-]=[N+]=Nc1ccc2c(c1)Sc1ccccc1N2CCCCN1CCN(Cc2ccc(C(=O)c3ccccc3)cc2)CC1
TGI (SR leukemia): > 24.3 µM | TGI (UO-31 renal): > 27.9 µM | TGI (T-47D breast): 22.7 µM | TGI (NCI/ADR-RES ovarian): > 100 µM | TGI (PC-3 prostate): > 100 µM | TGI (UACC-257 melanoma): 4.41 µM | TGI (NCI-H522 lung): 4.43 µM | TGI (MDA-MB-435): > 100 µM | TGI (MOLT-4 leukemia): > 100 µM | TGI (COLO 205 colon): 3.55 µM | TGI (SK-MEL-5 melanoma): 4.09 µM | TGI (SK-MEL-28 melanoma): 3.57 µM | TGI (HOP-92 NSCLC): 11.7 µM | TGI (MCF7 breast): > 23.3 µM | TGI (SNB-75 CNS): > 100 µM | TGI (OVCAR-3 ovarian): > 100 µM | TGI (LOX IMVI melanoma): 3.56 µM | TGI (MDA-MB-231 breast): 33 µM | TGI (BT-549 breast): > 66.1 µM | TGI (NCI-H460 lung): > 100 µM | TGI (SK-OV-3 ovarian): > 100 µM | TGI (CCRF-CEM leukemia): > 100 µM | TGI (U251 CNS): > 100 µM | TGI (TK-10 renal): > 96.2 µM | TGI (OVCAR-4 ovarian): > 100 µM | TGI (A498 renal): > 29 µM | TGI (A549 NSCLC): > 100 µM | TGI (IGROV1 ovarian): > 100 µM | TGI (SNB-19 CNS): > 100 µM | TGI (KM12 colon): > 100 µM | TGI (OVCAR-8 ovarian): > 36.4 µM | TGI (HCC-2998 colon): 3.86 µM | TGI (NCI-H23 lung): > 80.8 µM | TGI (RPMI-8226 leukemia): > 100 µM | TGI (SN12C renal): > 100 µM | TGI (HS 578T breast): > 100 µM | TGI (K-562 leukemia): > 100 µM | TGI (ACHN renal): > 100 µM | TGI (MDA-N): > 100 µM | TGI (EKVX NSCLC): > 100 µM | TGI (UACC-62 melanoma): 6.1 µM | TGI (CAKI-1 renal): > 65.4 µM | TGI (SF-539 CNS): 23.1 µM | TGI (HCT-15 colon): > 100 µM | TGI (SK-MEL-2 melanoma): 6.86 µM | TGI (HOP-62 NSCLC): > 100 µM | TGI (HT29 colon): 3.53 µM | TGI (HCT-116 colon): > 56.8 µM | TGI (M14 melanoma): 3.95 µM | TGI (SF-268 CNS): > 100 µM | TGI (NCI-H226 lung): > 100 µM | TGI (OVCAR-5 ovarian): > 100 µM | TGI (SF-295 CNS): > 100 µM | TGI (SW-620 colon): > 100 µM | TGI (DU-145 prostate): > 100 µM | TGI (MALME-3M melanoma): 4.28 µM | TGI (786-0 renal): > 100 µM | TGI (HL-60(TB) leukemia): 10.1 µM | TGI (RXF 393 renal): 5.37 µM

C=C(C)C(CC=C(C)C)Cc1c(O)cc(OC)c2c1OC(c1ccc(O)cc1O)C(O)C2=O (configuration not stated)
TGI (SR leukemia): > 100 µM | TGI (UO-31 renal): 29.5 µM | TGI (T-47D breast): 32.4 µM | TGI (NCI/ADR-RES ovarian): 55.8 µM | TGI (PC-3 prostate): 26.3 µM | TGI (UACC-257 melanoma): 32.1 µM | TGI (NCI-H522 lung): 34.2 µM | TGI (MDA-MB-435): 35.9 µM | TGI (MOLT-4 leukemia): > 100 µM | TGI (COLO 205 colon): 30 µM | TGI (SK-MEL-5 melanoma): 33.1 µM | TGI (SK-MEL-28 melanoma): 56.2 µM | TGI (HOP-92 NSCLC): 28 µM | TGI (MCF7 breast): 27 µM | TGI (SNB-75 CNS): 31.5 µM | TGI (OVCAR-3 ovarian): 34.8 µM | TGI (LOX IMVI melanoma): 36.1 µM | TGI (MDA-MB-231 breast): 34.1 µM | TGI (BT-549 breast): 28.5 µM | TGI (NCI-H460 lung): 33.9 µM | TGI (SK-OV-3 ovarian): 30.5 µM | TGI (CCRF-CEM leukemia): > 100 µM | TGI (U251 CNS): 27.6 µM | TGI (TK-10 renal): 38.4 µM | TGI (OVCAR-4 ovarian): 38.4 µM | TGI (A498 renal): 30.7 µM | TGI (A549 NSCLC): 39.4 µM | TGI (IGROV1 ovarian): 28.1 µM | TGI (SNB-19 CNS): 29.3 µM | TGI (KM12 colon): 24.6 µM | TGI (OVCAR-8 ovarian): 31.2 µM | TGI (HCC-2998 colon): 30.6 µM | TGI (NCI-H23 lung): 33.6 µM | TGI (RPMI-8226 leukemia): > 100 µM | TGI (SN12C renal): 35.2 µM | TGI (HS 578T breast): 79.4 µM | TGI (K-562 leukemia): > 100 µM | TGI (ACHN renal): 43.2 µM | TGI (MDA-N): 28.1 µM | TGI (EKVX NSCLC): 31.1 µM | TGI (UACC-62 melanoma): 36.4 µM | TGI (CAKI-1 renal): 26.6 µM | TGI (SF-539 CNS): 31.4 µM | TGI (HCT-15 colon): 31.1 µM | TGI (SK-MEL-2 melanoma): 34.7 µM | TGI (HOP-62 NSCLC): 31 µM | TGI (HT29 colon): 38.2 µM | TGI (HCT-116 colon): 34.5 µM | TGI (M14 melanoma): 36.5 µM | TGI (SF-268 CNS): 61.1 µM | TGI (NCI-H226 lung): 44.7 µM | TGI (OVCAR-5 ovarian): 32.4 µM | TGI (SF-295 CNS): 28.2 µM | TGI (SW-620 colon): 30.3 µM | TGI (DU-145 prostate): 32.4 µM | TGI (MALME-3M melanoma): 31.8 µM | TGI (786-0 renal): 32.3 µM | TGI (HL-60(TB) leukemia): > 100 µM | TGI (RXF 393 renal): 43.6 µM
